Source: the SangsterLogP compilation

Assay: method code SF-AS, from DOI: 10.1007/bf00500963, PMID: 600309

SMILES	logP
Cc1cc(C)c(N=C2NCCN2)c(Cl)c1	2.1
Clc1cc(Br)cc(Cl)c1N=C1NCCN1	2.66
Cc1cc(Cl)cc(C)c1N=C1NCCN1	2.5
COc1cc(Cl)c(N=C2NCCN2)c(Cl)c1	1.6
Cc1ccccc1N=C1NCCN1	1.28
Cc1cc(Cl)c(NC2=NCCN2)c(Cl)c1	1.92
Fc1cccc(Cl)c1N=C1NCCN1	1.45
Clc1ccc(Cl)c(N=C2NCCN2)c1	2.04
CCc1cccc(CC)c1N=C1NCCN1	2.6
Cc1cc(Cl)cc(Cl)c1N=C1NCCN1	2.38
O=[N+]([O-])c1cc(Cl)c(N=C2NCCN2)c(Cl)c1	2.1
Cc1cc(Br)cc(C)c1N=C1NCCN1	2.8
Clc1cccc(NC2=NCCN2)c1Cl	2.01
Cc1cc(C)c(N=C2NCCN2)c(C)c1	2.32
Cc1ccc(N=C2NCCN2)c(C)c1	1.78
Clc1cccc(Br)c1N=C1NCCN1	1.73
Clc1cccc(Cl)c1N=C1NCCN1	1.59
Clc1ccccc1N=C1NCCN1	1.36
Brc1cc(Br)c(N=C2NCCN2)c(Br)c1	2.74
